Patent US20260152636A1, “GELLING SOLUTIONS FOR ADMINISTRATION OF COMPOUNDS TO THE INNER EAR” (Spiral Therapeutics, Inc., priority 2020, published 2026)

Legend:
MD patients = settings: cited from earlier work
in vivo = settings: both, Hartley, guinea pig, other: intratympanic, 5 μL
Protocol: (§1) An 8-week toxicology study was performed to assess the safety and pharmacokinetics of intratympanic administration of a PEG-trilysine polymer formulation in Hartley guinea pigs. […] Hartley guinea pigs of both sexes [n=46 (23 males and 23 females) were used for the study. Following 3 to 7 days of acclimation, all guinea pigs underwent baseline ABRs tests at 4, 10, and 20 kHz.
(§2) Perilymph samples were collected at terminus at 3 days, 1 week, 4 weeks, and 8 weeks post administration.

[1] = Dexamethasone levels in plasma and perilymph after single IT injection in green monkey; format: in vivo, African green monkey (Chlorocebus sabaeus); settings: through Day 22
Protocol: Information on absorption, distribution and pharmacokinetics of the PEG-trilysine polymer formulation by otic administration were obtained from a pharmacokinetic (PK) and tolerability study conducted in the African green monkey (Chlorocebus sabaeus)
The perilymph and plasma concentrations of the PEG-trilysine polymer formulation were evaluated following a single IT injection. Perilymph and plasma levels of test and control articles were measured after 1, 10 and 22 days. Given the small study size (N=9 enrolled) and number of total ears treated, PK data are presented as descriptive statistics only.
The absorption and distribution of dexamethasone was also investigated in African green monkeys.

[2] = guinea pig, in vivo
Protocol: as §1, §2

Hartley guinea pigs = experiment: 8-week safety study, ABR threshold shift after intratympanic injection; format: in vivo, guinea pig; settings: IT injection; Days 3 and 14; positive control
Excerpt: Groups 1-3 were further divided into subgroups with varying survival times up to 8 weeks. The number of ears for the 4-week and 8-week timepoints in this study were powered to detect a 20 dB shift from baseline in the ABR threshold measurement at each of the three test frequencies (1-way t-test; independent means; apriori; power=0.95), using sample data to estimate variability from pilot studies. Auditory brainstem responses and blood sampling were collected at specified in-life timepoints, including terminus. Perilymph sampling, middle ear visualization, and histology sample preparation were performed on specified animals at terminus.

Compound	Incidence of TM perforation (MD patients; end of Phase 1b study, 3 mg or 12 mg single IT injection) [%]	Safety and tolerability (MD patients; single IT injection of 12 mg, formulated with poloxamer 407, unilateral MD)	concentration at 1 week (in vivo; perilymph) [ng/mL]	concentration at 3 days (in vivo; perilymph) [ng/mL]	concentration at 1 week (in vivo; plasma) [ng/mL]	concentration at 3 days (in vivo; plasma) [ng/mL]	Plasma levels of dexamethasone over time [1]	Perilymph Mean (ng/mL) [2]	Plasma Mean (ng/mL) [2]	ABR threshold shift (Hartley guinea pigs) [dB]	Improvement in aural fullness (MD patients; IT therapy, one study) [%]
C[C@@H]1C[C@H]2[C@@H]3CCC4=CC(=O)C=C[C@]4(C)[C@@]3(F)[C@@H](O)C[C@]2(C)[C@@]1(O)C(=O)CO [Dexamethasone, dexamethasone]	3	safe, well-tolerated	1700	109	3.2	5.5	remained within detectable limits through Day 22	BLQ	BLQ	–	–
gentamicin	–	–	–	–	–	–	–	–	–	≥ 55	31
